The numbers were not newly measured in patent publication US8466103B2, “Exendin polypeptide linked to biotin, method for the preparation thereof and pharmaceutical composition comprising the same” (B&L Delipharm, Corp., priority 2008, dated 2013), which cites them from elsewhere.

The structures appear in SMILES notation.

For the data set, the target named is Na-dependent multivitamin transport system. As to conditions: small intestines; read-out: Affinity constant of the transport system for biotin; cited from earlier work.

For the molecule `O=C(O)CCCC[C@@H]1SC[C@@H]2NC(=O)N[C@@H]21` [biotin], the Kd was around 2.6 nM.
